Literature values as cited in EP2691395B1, “PROCESSES FOR PREPARING TOFACITINIB SALTS” (ratiopharm GmbH, priority 2011, dated 2012).

Conditions: acids listed as possible first acid

Compound | pKa
CC(O)CC(=O)O (stereo not drawn) [3-hydroxybutanoic acid] | about 4.70
O=C(O)CCO [3-hydroxypropanoic acid] | about 4.51
CC(=O)Nc1ccc(C(=O)O)cc1 [4-acetamidobenzoic acid] | about 4.3
O=C(O)CCCO [4-hydroxybutanoic acid] | about 4.72
CC1(C(=O)O)CCC(C(=O)O)C1(C)C (stereo not drawn) [(+)-camphoric acid] | about 4.72
O=C(O)[C@H](O)[C@@H](O)[C@H](O)[C@H](O)CO [D-gluconic acid] | about 3.76
CCCCCCCC(=O)O [caprylic or octanoic acid] | about 4.91
O=C(O)O [carbonic acid] | about 6.46
O=C(O)/C=C\c1ccccc1 [cis-cinnamic acid] | about 3.89
O=C(O)CCCC(=O)O [glutaric acid] | about 4.31
CCCCCC(=O)O [hexanoic or caproic acid] | about 4.85
O=C(O)CNC(=O)c1ccccc1 [hippuric acid] | about 3.55
CCCCCCCCCCCC(=O)O [lauric acid] | about 4.9
O=C(O)c1cccc(O)c1 [m-hydroxybenzoic acid] | about 4.06
CC(CC(=O)O)C(=O)O (stereo not drawn) [methylsuccinic acid] | about 4.13
CCCCCCCC/C=C\CCCCCCCC(=O)O [oleic acid] | about 4
O=C(O)c1cc(=O)[nH]c(=O)[nH]1 [orotic acid] | about 5.85
O=C(O)c1ccc(O)cc1 [p-hydroxybenzoic acid] | about 4.48
CCCCCCCCCCCCCCCC(=O)O [palmitic acid] | about 4.9
CCCCC(=O)O [pentanoic acid] | about 4.84
O=C(O)Cc1ccccc1 [phenylacetic acid] | about 4.28
CCCCCCCCCCCCCCCCCC(=O)O [stearic acid] | about 4.9
C=CCCCCCCCCC(=O)O [undecylenic acid] | about 4.9
O=c1[nH]c(=O)c2[nH]c(=O)[nH]c2[nH]1 [uric acid] | about 3.89
